Reference: article PMC7188706 (Cancer Chemotherapy and Pharmacology, 2020)
Entries after “also recorded” stand apart in the source; their conditions may differ. Read-outs that look alike come from different tables or passages of the source.

Legend:
[1] = test system: HER2-positive breast cancer; design: method as in PMID 24711549; settings: escalated to 7000 mg on days 1–5 of repeating 14-day cycles, heavily pre-treated patients; cited from earlier work
[2] = Effect of cola versus water on sorafenib exposure (dose normalized Cmax and AUC(0–12 h)); format: in vivo, human; settings: dissolved in cola vs water, patients using PPI
Text: Descriptive statistics were used to describe patient characteristics, treatment administration, safety, efficacy and pharmacokinetic data. Progression-free survival (PFS) was defined as the time from first treatment until progression of disease or death as a result of any cause. Fisher’s exact tests were used to assess correlations between exposure level or dose and frequency of AEs. […] Data were considered significant at P < 0.05.

[3] = cited from earlier work
[4] = test system: 789-O renal cell carcinoma xenografts; settings: high-dose schedule; also increased reduction of tumor perfusion and microvessel density; cited from earlier work
patients = settings: cited from earlier work
[5] = design: method as in PMID 15613696; settings: 400 mg twice daily; cited from earlier work
[6] = test system: patients with advanced solid malignancies; settings: in vivo;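 note: Single-center phase I trial, adverse events graded by NCI CTCAE version 4.0, safety checks weekly over the first 8 weeks, then every 4 weeks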
Experimental: (§1) This single center phase I study was conducted at the Amsterdam UMC, location VUmc, the Netherlands. […] The starting exposure level was 25–50 mg/L/h, analogous to the continuous schedule [23], and was escalated in subsequent cohorts with increments of 25 mg/L/h.
(§2) Each dose was dissolved in either a large glass of water or classic Coca-Cola (the Coca-Cola Company, Atlanta GA) (~ 240 ml).
(§3) Safety and tolerability assessments, including physical examination, ECG and blood hematology and chemistry, were performed weekly during the first 8 weeks and once every 4 weeks thereafter. Adverse events (AEs) were graded according to the National Cancer Institute Common Terminology Criteria for Adverse Events version 4.0.
(§4) Dose (/exposure)-limiting toxicity (DLT) was defined as any grade 3 toxicity that occurred within the first 6 weeks of treatment and possibly related to the study drug.

[7] = test system: patients with advanced solid malignancies; assay: Phase I safety: treatment-related adverse events (CTCAE v4.0) and dose-limiting toxicity of once weekly high-dose, pulsatile sorafenib;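 note: Single-center phase I trial, adverse events graded by NCI CTCAE version 4.0, safety checks weekly over the first 8 weeks, then every 4 weeks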
Experimental: as §1, §2, §3, §4

[8] = cited from earlier work; remark: listed apart in the source
[9] = test system: progressive renal cell carcinoma; settings: 600 mg twice daily after failure of standard dosing; cited from earlier work
[10] = Plasma pharmacokinetics and drug monitoring of high-dose, pulsatile sorafenib (LC-MS/MS, non-compartmental); settings: for Cmax / AUC(0-t): human, oral
Experimental: as §1
Per patient a maximum of two dose adjustments were permitted. In addition, the maximum concentration (Cmax) and time of maximum concentration (Tmax) were determined.

[11] = test system: advanced solid malignancies; assay: Tumor response by CT or MRI using RECIST version 1.1; format: in vivo, human
Experimental: Tumor response was assessed by computed tomography or magnetic resonance imaging at baseline and every 8 weeks thereafter using RECIST version 1.1 [24].
Descriptive statistics were used to describe patient characteristics, treatment administration, safety, efficacy and pharmacokinetic data. […] Fisher’s exact tests were used to assess correlations between exposure level or dose and frequency of AEs. […] Data were considered significant at P < 0.05.

[12] = cited from earlier work; remark: listed apart in the source
[13] = cited from earlier work; remark: listed apart in the source
[14] = test system: patients with known EGFR mutations; settings: cited from earlier work
NSCLC patients = test system: NSCLC patients; design: method as in PMID 16878326; settings: 2000 mg per week; cited from earlier work
[15] = design: method as in PMID 26858332; settings: patients using omeprazole; cited from earlier work
[16] = test system: advanced solid malignancies; settings: cited from earlier work

CS(=O)(=O)CCNCc1ccc(-c2ccc3ncnc(Nc4ccc(OCc5cccc(F)c5)c(Cl)c4)c3c2)o1 [lapatinib]
objective response rate [1]: 15%

CNC(=O)c1cc(Oc2ccc(NC(=O)Nc3ccc(Cl)c(C(F)(F)F)c3)cc2)ccn1 [sorafenib]
effect of cola on sorafenib AUC(0–12 h) ([2]; P = 0.24): did not improve sorafenib exposure; also recorded: did not lead to an increase; also recorded: did not affect
effect of cola on sorafenib Cmax ([2]; P = 0.33): did not lead to an increase; also recorded: did not affect
association of higher AUCmax (> 100 mg/L/h) with outcome [3]: longer progression-free survival
tumor growth in comparison to continuous conventional dosing [4]: slower tumor growth
incidence of perforation of the gastrointestinal tract (patients; standard continuous schedule): < 1%
most important DLTs (patients; standard dose sorafenib, several phase I studies): skin toxicity, diarrhea and fatigue
mean Cmax, steady state [5]: 5400 to 9400 ng/mL
mean sorafenib exposure (AUC), day 1 [5]: 21.8 to 107 mg/L/h
mean sorafenib exposure (AUC), steady state [5]: 47.8 to 71.7 mg/L/h
ALP increased, Grade All, no. of patients (%) ([6]; human): 3 (20%)
ALP increased, Grade ≥ 3, no. of patients (%) ([6]; human): 2 (13%)
Anorexia, Grade All, no. of patients (%) ([6]; human): 3 (20%)
Anorexia, Grade ≥ 3, no. of patients (%) ([6]; human): 0
Bilirubin increased, Grade All, no. of patients (%) ([6]; human): 2 (13%)
Bilirubin increased, Grade ≥ 3, no. of patients (%) ([6]; human): 0
Bloating, Grade All, no. of patients (%) ([6]; human): 2 (13%)
Bloating, Grade ≥ 3, no. of patients (%) ([6]; human): 0
Diarrhea, Grade All, no. of patients (%) ([6]; human): 4 (27%)
Diarrhea, Grade ≥ 3, no. of patients (%) ([6]; human): 0
Fatigue, Grade All, no. of patients (%) ([6]; human): 10 (67%)
Fatigue, Grade ≥ 3, no. of patients (%) ([6]; human): 0
GGT increased, Grade All, no. of patients (%) ([6]; human): 1 (7%)
GGT increased, Grade ≥ 3, no. of patients (%) ([6]; human): 1 (7%)
Multiorgan failure, Grade All, no. of patients (%) ([6]; human): 1 (7%)
Multiorgan failure, Grade ≥ 3, no. of patients (%) ([6]; human): 1 (7%)
Nausea, Grade All, no. of patients (%) ([6]; human): 10 (67%)
Nausea, Grade ≥ 3, no. of patients (%) ([6]; human): 0
Perforation, Grade All, no. of patients (%) ([6]; human): 2 (13%)
Perforation, Grade ≥ 3, no. of patients (%) ([6]; human): 2 (13%)
Stomatitis, Grade All, no. of patients (%) ([6]; human): 2 (13%)
Stomatitis, Grade ≥ 3, no. of patients (%) ([6]; human): 0
Vomiting, Grade All, no. of patients (%) ([6]; human): 8 (53%)
Vomiting, Grade ≥ 3, no. of patients (%) ([6]; human): 0
diarrhea, frequency ([6]; human): 27%
doses from which grade ≥ 3 AEs developed ([6]; human): ≥ 2800 mg/week
fatigue, frequency ([6]; human): 67%
incidence of perforation ([6]; human): 13%
nausea, frequency ([6]; human): 67%
patients requiring dose interruptions ([6]; human): 33%
patients with dose interruptions due to DLTs leading to permanent study discontinuation ([6]; human): 20%
vomiting, frequency ([6]; human): 53%
dose-limiting toxicity, one patient ([6]; human, 3 cycles): grade 5 biliary tract perforation
frequency and rate of grade ≥ 3 AEs versus dose [6]: increased with a higher dose of sorafenib
frequency and rate of grade ≥ 3 AEs versus exposure [6]: did not increase with higher exposure
patients with dose-limiting toxicity [6]: three patients
tolerated dose in a pulsatile schedule as multiple of conventional dose [7]: ~ 3.5 times
solubility ([8]; pH 1.0): 0.034 mg/100 mL
solubility ([8]; pH 4.5): 0.013 mg/100 mL
patients with tumor reduction [9]: 42%
Observed AUC(0–12 h) week 3, mean (± SD) ([10]; Cohort 1, target AUC(0–12 h) 25–50 mg/L/h, PK-guided dose week 3 533 (± 306) mg, plasma): 31 (± 13) mg/L/h
mean difference between observed and target AUC(0–12 h), week 3 ([10]; after drug monitoring / personalized dose titration, SD ± 32%, P = 0.06 vs week 1): 2%
mean difference between observed and target AUC(0–12 h), week 1 ([10]; fixed starting dose, SD ± 56%): 45%
Cmax ([10]; plasma, 533 mg, Cmax week 3, mean (± SD), Cohort 1, PK-guided dose week 3 533 (± 306) mg): 4380 ng/mL
AUC(0-t) ([10]; plasma, 1000 mg, AUC(0–12 h), range, first exposure cohort, target AUC(0–12 h) 25–50 mg/L/h): 61 to 103 µg·h/mL
AUC(0-t) ([10]; plasma, 1000 mg, Observed AUC(0–12 h) week 1, mean (± SD), Cohort 1, 3 patients, target AUC(0–12 h) 25–50 mg/L/h, fixed dose week 1 1000 mg): 78 µg·h/mL
Cmax ([10]; plasma, 1867 mg, Cmax week 3, mean (± SD), Cohort 2, PK-guided dose week 3 1867 (± 993) mg): 11100 ng/mL
Cmax ([10]; plasma, 2000 mg, Cmax week 1, mean (± SD), Cohort 2, 8 patients, fixed dose week 1 2000 mg): 13700 ng/mL
AUC(0-t) ([10]; plasma, 2000 mg, Observed AUC(0–12 h) week 1, mean (± SD), Cohort 2, 8 patients, target AUC(0–12 h) 75–100 mg/L/h, fixed dose week 1 2000 mg): 125 µg·h/mL
Cmax ([10]; plasma, 2333 mg, Cmax week 3, mean (± SD), Cohort 3, PK-guided dose week 3 2333 (± 219) mg): 13300 ng/mL
Cmax ([10]; plasma, 2400 mg, Cmax week 1, mean (± SD), Cohort 3, 3 patients, fixed dose week 1 2400 mg): 20800 ng/mL
Cmax ([10]; plasma, 2400 mg, Cmax, highest, SD ± 11 mg/L): ≤ 21000 ng/mL
AUC(0-t) ([10]; plasma, 2400 mg, highest exposure levels, AUC(0–12 h), SD ± 113 mg/L/h): ≤ 204 µg·h/mL
AUC(0-t) ([10]; plasma, 2800 mg, Observed AUC(0–12 h) week 1, mean (± SD), Cohort 4, 3 patients, target AUC(0–12 h) 125–150 mg/L/h, fixed dose week 1 2800 mg): 120 µg·h/mL
AUC(0-t) ([10]; plasma, 3600 mg, observed AUC(0–12 h), individual patient, patient with grade 5 biliary tract perforation, sorafenib dose 3600 mg): 182 µg·h/mL
sorafenib dose up to which mean exposure increased ([10]; no additional increases thereafter, divided doses of 200–400 mg every 2 h): up to 2400 mg per week
accumulation a week after each ingestion ([10]; once weekly): No accumulation
duration of stable disease ([11]; patient with cholangiocarcinoma, target exposure 75–100 mg/L/h, 2400 mg/week): 3 months
duration of stable disease ([11]; patient with hepatocellular carcinoma, target exposure 100–125 mg/L/h, 4800 mg/week): 5.5 months
complete or partial responses ([11]; thirteen patients evaluable): No complete or partial responses were observed
progressive disease, patients ([11]; thirteen patients evaluable, eleven patients): 85%
best response stable disease, patients ([11]; thirteen patients evaluable, two patients): 15%
enterohepatic circulation [12]: has been observed
improvement of absorption by multiple divided doses per day [13]: 50%
effects of PPI on sorafenib absorption ([13]; contradicting results): no effects to one-third reduction
dose above which absorption is saturable ([13]; daily continuous schedule): > 800 mg/day
improvement of absorption by a moderate fat meal ([13]; in comparison to a high fat meal of ≥ 50% fat): 30%

C#Cc1cccc(Nc2ncnc3cc(OCCOC)c(OCCOC)cc23)c1 [erlotinib]
tolerability ([14]; erlotinib 450 mg every 3 days or gefitinib 1000 mg every 4 days): well tolerated
median PFS ([14]; erlotinib 450 mg every 3 days): 6 months
response rate ([14]; erlotinib 450 mg every 3 days): 15%
mean overall survival (OS) (NSCLC patients): 9.5 months
tolerability (NSCLC patients): well tolerated
effect of cola intake on bioavailability [15]: did improve by cola intake

CCN(CC)CCNC(=O)c1c(C)[nH]c(/C=C2\C(=O)Nc3ccc(F)cc32)c1C [sunitinib]
increase of Cmax ([16]; 14 times the conventional dose): 18 fold
patients with PFS of ≥ 5 months [16]: 30%
patients with clinical benefit ([16]; more than 70 heavily pre-treated patients): 63%

CNC(=O)c1cc(Oc2ccc(NC(=O)Nc3ccc(Cl)c(C(F)(F)F)c3)cc2)cc[n+]1[O-] [sorafenib N-oxide]
metabolite as share of the parent drug ([10]; plasma): approximately 4%
